Test results taken from patent US20160030364A1, “Therapeutic Compositions and Uses Thereof” (MANUKA HEALTH NEW ZEALAND LIMITED, priority 2013, published 2016).

Tests used:
Type in all cases: cell-based
[1] = test system: human gastric carcinoma cell line (NCI-N87); assay: MTT anti-proliferative assay, NCI-N87 (Examples 3-12); settings: for % inhibition / % stim. / Mean OD (570 nm) / inhibition at 200 µg/mL: 200 μg/ml; for % inhibition / % stim. / Mean OD (570 nm): 48 hours
Experimental: (§1) 5-phenylpenta-2,4-dienoic acid was assessed for its ability to modulate the viability and proliferation of human colorectal adenocarcinoma cells (DLD-1); human colon cancer cell line (HCT-116); human gastric carcinoma cell line (NCI-N87); and human oesophageal squamous cell carcinoma cell line (KYSE-30) as assessed by the MTT assay. The positive control, 5-fluorouracil (5-FU) was included at three concentrations; in addition to an unsupplemented cell control as a negative control in the study. The 5-phenylpenta-2,4-dienoic acid was a genuine standard with chemical structure confirmed by NMR and MS.
(§2) The four human gastrointestinal carcinoma cell lines were revived from cryostorage and cultured in the presence of the test and reference samples. An MTT assay was then performed on the cultures to determine the effect of the samples on the cell viability and proliferation.
(§3) The test sample 5-phenylpenta-2,4-dienoic acid, and all other test samples in Examples 4-12 (except tectochrysln) were Initially dissolved in pure ethanol to a concentration of around 13.35 mg/ml. Tectochrysin was initially dissolved in triethylene glycol mono-methyl ether to the same concentration. Working solutions were then prepared from the stock solutions by dilution to 15% ethanol/Hanks Balanced Salt Solution (ETOH)/HBSS to a concentration of 2 mg/mL solids. In the assay the final concentration of the samples was 200 μg/ml with a final EtOH concentration of 1.5%. Final concentrations of test compounds and propolis prepared as above are as noted in Example 3.
(§4) • 1. Human colorectal adenocarcinoma cells (ATCC CCI-221, DLD-1)(ATCC, Bethesda, Md., USA) • 2. Human gastric carcinoma cells (ATCC CRL-5822, NCI-N87)(ATCC, Bethesda, Md., USA) • 3. Human oesophageal squamous cell carcinoma (ECACC, KYSE-30)(Sigma Aldrich, Auckland, NZ) • 4. Human colon carcinoma cells (ECACC HCT-116)(Sigma Aldrich, Auckland, NZ) • 5. Penicillin-streptomycin solution: 10000 units/ml penicillin, 10 mg/ml streptomycin in 0.9% NaCl (Sigma Cat #P-0781). Stored at −20° C. • 6. For DLD-1 cells: DMEM culture medium (Invitrogen Cat #12100-046). Stored at 4° C. • 7. For NCI-N87 cells: RPMI-1640 medium modified to contain 2 mM L-glutamine, 10 mM HEPES, 1 mM sodium pyruvate, 4500 mg/L glucose, and 1500 mg/L sodium bicarbonate (Sigma R6504). Stored at 4° C. • 8. For KYSE-410 cells: RPMI-1640 medium modified to contain 2 mM L-glutamine (Sigma R6504). Stored at 4° C. • 9. For HCT-116 cells: McCoy's 5A medium modified to contain 2 mM L-glutamine (Sigma M48792). Stored at 4° C. • 10. Trypsin-EDTA solution: 0.25% Trypsin/EDTA, Invitrogen Cat#15400054 (×10 in stock). • 11. Phosphate buffered saline (PBS) (Prepared by TBL). • 12. Hanks Balanced Salt Solution (HBSS). (GIBCO Cat No. 14185-052). Stored at 4° C. • 13. Foetal Bovine Serum (GIBCO Cat #10091-148). Stored at −20° C. • 14. MTT Reagent: 100 mg/vial, (SIGMA Cat. No. M-2128) dissolved in PBS at 10 mg/ml and stored at −20° C. 5 mg/ml MTT solution will be prepared in PBS and stored at 4° C. as working solution. • 15. MTT lysis buffer: 10% sodium dodecyl sulphate (SDS)/45% Dimethyl Formamide (20 g SDS will be dissolved in 100 ml of double-distilled water (DDW), and 90 ml of Dimethyl Formamide will be added to the SDS solution). The pH will be adjusted to 4.7 by glacial acetic acid, and DDW added up to a final volume of 200 ml. • 16. 5-Fluorouracil (5-FU), (Sigma Cat. No. F-6627). Three working solutions will be prepared at 19.5 μg/ml. 6.5 μg/ml and 1.95 μg/ml dissolved in 15% Ethanol/HBSS. Final concentrations will be 1.95 μg/ml (15 μM), 0.65 μg/ml (5 μM) and 0.195 μg/ml (1.5 μM).
(§5) The medium for the propagation of the each of the cells lines is given above. Each medium was prepared following the ATCC/ECACC instructions and supplemented with penicillin-streptomycin solution (10 ml per litre). FBS (at 10%) was added just before use.
• 1. […]

[2] = test system: human oesophageal squamous cell carcinoma cell line (KYSE-30); assay: MTT anti-proliferative assay, KYSE-30 (Examples 3-13)
Experimental: as §1, §2, §3, §4, §5
• 1. […]

[3] = test system: human oesophageal squamous cell carcinoma cell line (KYSE-30); assay: as above; remark: listed apart in the source
[4] = Examples 3-12, 200 μg/ml, 48 hours
[5] = Homo sapiens, KYSE-30, 48 h, Examples 3-12, 200 μg/ml, 48 hours

O=c1[nH]cc(F)c(=O)[nH]1 [Sample 5-FU, 5-fluorouracil, reference compound]
inhibition at 0.195 µg/mL ([1]; Homo sapiens, NCI-N87, 48 h, 0.195 μg/ml): 7.52% | inhibition at 0.65 µg/mL ([1]; Homo sapiens, NCI-N87, 48 h, 0.65 μg/ml): 17.2% | inhibition at 1.95 µg/mL ([1]; Homo sapiens, NCI-N87, 48 h, 1.95 μg/ml): 16.2% | inhibition at 0.195 µg/mL ([2]; Homo sapiens, KYSE-30, 48 h, Examples 3-12, 0.195 μg/ml, 48 hours): 23.8% | inhibition at 0.195 µg/mL ([2]; Homo sapiens, KYSE-30, Example 13, 0.195 μg/ml): 3.41% | inhibition at 0.65 µg/mL ([2]; Homo sapiens, KYSE-30, Example 13, 0.65 μg/ml): 16.6% | inhibition at 1.95 µg/mL ([2]; Homo sapiens, KYSE-30, Example 13, 1.95 μg/ml): 31.5% | inhibition at 0.65 µg/mL ([3]; Homo sapiens, KYSE-30, 48 h, Examples 3-12, 0.65 μg/ml, 48 hours): 39.4% | inhibition at 1.95 µg/mL ([3]; Homo sapiens, KYSE-30, 48 h, Examples 3-12, 1.95 μg/ml, 48 hours): 47.5%

O=C(O)/C=C/c1ccc(O)cc1 [p-coumaric acid, para-coumaric acid, reference compound]
% inhibition [1]: 17.31% | % stim. [1]: 0% | Mean OD (570 nm) [1]: 0.3652 | inhibition at 200 µg/mL ([1]; Homo sapiens, NCI-N87, 48 h): 17.3% | % stim. [2, 4]: 0% | Mean OD (570 nm) [2, 4]: 0.3243 | inhibition at 200 µg/mL [2, 5]: 46.1%

COc1cc(O)c2c(=O)cc(-c3ccccc3)oc2c1 [Tectochrysin, tectochrysin]
% inhibition [1]: 54.0% | % inhibition [2, 4]: 87.6%

O=C1C[C@@H](c2ccccc2)Oc2cc(O)cc(O)c21 [Pinocembrin, reference compound]
% stim. [1]: 0% | Mean OD (570 nm) [1]: 0.1214 | inhibition at 200 µg/mL ([1]; Homo sapiens, NCI-N87, 48 h): 72.5% | % stim. [2, 4]: 0% | Mean OD (570 nm) [2, 4]: 0.0225 | inhibition at 200 µg/mL [2, 5]: 96.3% | % inhibition ([3]; Example 13, 100 μg/ml): 50.26% | Mean OD (570 nm) ([3]; Example 13, 100 μg/ml): 0.1668 | inhibition at 100 µg/mL ([3]; Homo sapiens, KYSE-30, Example 13, 100 μg/ml): 50.3%
